Measurements from PubChem BioAssay AID1963427 (Molecular Pharmacology Branch, DTP, NCI, 2024).

System: 317291-083-R-J1-PDC complex spheroid growth
Assay: Anticancer human tumor 317291-083-R-J1-PDC patient-derived soft tissue sarcoma cell line growth inhibition [Asc]
Settings: for IC50: curve of first compound; for viability, T/C: stronger effect = lower value
How it was run: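 Tumor cells were grown as multicellular spheroids with stromal HUVEC and mesenchymal stem cells and treated singly or in combination. Concentrations fell in half-log steps from the clinical Cmax, or from 10 microM where none was known.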

[1] = second compound 0.0316 µM, first compound 0.0316 µM
[2] = second compound 0.0316 µM, first compound 0.1 µM
[3] = second compound 0.1 µM, first compound 0.0316 µM
[4] = second compound 0.1 µM, first compound 0.1 µM
[5] = second compound 0.316 µM, first compound 0.0316 µM
[6] = second compound 0.316 µM, first compound 0.1 µM
[7] = second compound 1 µM, first compound 0.0316 µM
[8] = second compound 1 µM, first compound 0.1 µM
[9] = second compound 3.16 µM, first compound 0.0316 µM
[10] = second compound 3.16 µM, first compound 0.1 µM
[11] = second compound 10 µM, first compound 0.0316 µM
[12] = second compound 10 µM, first compound 0.1 µM
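Also: compound exposure lasted seven days after spheroids formed for three days.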
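For viability, T/C in this document: 100% = DMSO vehicle control wells.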

Compound `Cc1nc(N2CCC3(CC2)COC(C)C3N)c(CO)nc1Sc1ccnc(N)c1Cl` (stereo unspecified) + CNC(C)C(=O)NC1CN(S(=O)(=O)c2cccc(S(=O)(=O)N3CCC4CCC(C(=O)NC(c5ccccc5)c5ccccc5)N4C(=O)C(NC(=O)C(C)NC)C3)c2)CCC2CCC(C(=O)NC(c3ccccc3)c3ccccc3)N2C1=O has an IC50 (second compound 0.00316 µM) of 2210 nM, an IC50 (second compound 0.01 µM) of 1150 nM and an IC50 (second compound 0.0316 µM) of 1960 nM. For the same compound, the IC50 (second compound 0.1 µM) was 89.3 nM, the IC50 (second compound 0.316 µM) was < 9.49 nM and the IC50 (second compound 1 µM) was < 9.49 nM. The viability, T/C (second compound 0.00316 µM, first compound 0.00949 µM) was 93.4%, the viability, T/C (second compound 0.00316 µM, first compound 0.03 µM) was 70.8% and the viability, T/C (second compound 0.00316 µM, first compound 0.0949 µM) was 80.5%. The viability, T/C (second compound 0.00316 µM, first compound 0.3 µM) was 66.7%, the viability, T/C (second compound 0.00316 µM, first compound 0.949 µM) was 70.2% and the viability, T/C (second compound 0.00316 µM, first compound 3 µM) was 41.9%. It also gave a viability, T/C (second compound 0.01 µM, first compound 0.00949 µM) of 75.5%, a viability, T/C (second compound 0.01 µM, first compound 0.03 µM) of 90.1% and a viability, T/C (second compound 0.01 µM, first compound 0.0949 µM) of 67.8%. It also gave a viability, T/C (second compound 0.01 µM, first compound 0.3 µM) of 70%, a viability, T/C (second compound 0.01 µM, first compound 0.949 µM) of 52.2% and a viability, T/C (second compound 0.01 µM, first compound 3 µM) of 36.2%. It also gave a viability, T/C (second compound 0.0316 µM, first compound 0.00949 µM) of 65.2%, a viability, T/C (second compound 0.0316 µM, first compound 0.03 µM) of 72.8% and a viability, T/C (second compound 0.0316 µM, first compound 0.0949 µM) of 71.3%. The viability, T/C (second compound 0.0316 µM, first compound 0.3 µM) was 63.8%, the viability, T/C (second compound 0.0316 µM, first compound 0.949 µM) was 53.2% and the viability, T/C (second compound 0.0316 µM, first compound 3 µM) was 47.2%. It also gave a viability, T/C (second compound 0.1 µM, first compound 0.00949 µM) of 70.3%, a viability, T/C (second compound 0.1 µM, first compound 0.03 µM) of 51.2% and a viability, T/C (second compound 0.1 µM, first compound 0.0949 µM) of 54.1%. It also gave a viability, T/C (second compound 0.1 µM, first compound 0.3 µM) of 39.8%, a viability, T/C (second compound 0.1 µM, first compound 0.949 µM) of 39.9% and a viability, T/C (second compound 0.1 µM, first compound 3 µM) of 27.6%. For the same compound, the viability, T/C (second compound 0.316 µM, first compound 0.00949 µM) was 43.5%, the viability, T/C (second compound 0.316 µM, first compound 0.03 µM) was 39.8% and the viability, T/C (second compound 0.316 µM, first compound 0.0949 µM) was 38.1%. For the same compound, the viability, T/C (second compound 0.316 µM, first compound 0.3 µM) was 37.7%, the viability, T/C (second compound 0.316 µM, first compound 0.949 µM) was 32.4% and the viability, T/C (second compound 0.316 µM, first compound 3 µM) was 22.8%. It also gave a viability, T/C (second compound 1 µM, first compound 0.00949 µM) of 29.8%, a viability, T/C (second compound 1 µM, first compound 0.03 µM) of 22.5% and a viability, T/C (second compound 1 µM, first compound 0.0949 µM) of 29.8%. For the same compound, the viability, T/C (second compound 1 µM, first compound 0.3 µM) was 23.1%, the viability, T/C (second compound 1 µM, first compound 0.949 µM) was 18.5% and the viability, T/C (second compound 1 µM, first compound 3 µM) was 19.3%.

With `Cn1ncnc1[C@H]1c2n[nH]c(=O)c3cc(F)cc(c23)N[C@@H]1c1ccc(F)cc1` + Cc1c(S(C)(=O)=O)c(-c2cc(F)cc(N3CCN(c4ccc(NS(=O)(=O)c5ccc(NC(CCN6CCC(C(=O)OCCCP(=O)(O)O)CC6)CSc6ccccc6)c(S(=O)(=O)C(F)(F)F)c5)cc4)CC3)c2)c(-c2ccc(Cl)cc2)n1C(C)C the IC50 (second compound 0.0316 µM) was > 100 nM, the IC50 (second compound 0.1 µM) was > 100 nM and the IC50 (second compound 0.316 µM) was 81 nM. The IC50 (second compound 1 µM) was 49.7 nM, the IC50 (second compound 3.16 µM) was 55 nM and the IC50 (second compound 10 µM) was 32.5 nM. The viability, T/C (second compound 0.0316 µM, first compound 0.000316 µM) was 93.2%, the viability, T/C (second compound 0.0316 µM, first compound 0.001 µM) was 91.5% and the viability, T/C (second compound 0.0316 µM, first compound 0.00316 µM) was 78.4%. The viability, T/C (second compound 0.0316 µM, first compound 0.01 µM) was 85.6%, the viability, T/C [1] was 67.1% and the viability, T/C [2] was 56.6%. It also gave a viability, T/C (second compound 0.1 µM, first compound 0.000316 µM) of 91%, a viability, T/C (second compound 0.1 µM, first compound 0.001 µM) of 90.8% and a viability, T/C (second compound 0.1 µM, first compound 0.00316 µM) of 88.1%. It also gave a viability, T/C (second compound 0.1 µM, first compound 0.01 µM) of 77.9%, a viability, T/C [3] of 64.7% and a viability, T/C [4] of 55.5%. It also gave a viability, T/C (second compound 0.316 µM, first compound 0.000316 µM) of 83.2%, a viability, T/C (second compound 0.316 µM, first compound 0.001 µM) of 74.1% and a viability, T/C (second compound 0.316 µM, first compound 0.00316 µM) of 85.5%. The viability, T/C (second compound 0.316 µM, first compound 0.01 µM) was 66.8%, the viability, T/C [5] was 63% and the viability, T/C [6] was 47.1%. It also gave a viability, T/C (second compound 1 µM, first compound 0.000316 µM) of 78.4%, a viability, T/C (second compound 1 µM, first compound 0.001 µM) of 77.3% and a viability, T/C (second compound 1 µM, first compound 0.00316 µM) of 71.2%. The viability, T/C (second compound 1 µM, first compound 0.01 µM) was 55.5%, the viability, T/C [7] was 63.2% and the viability, T/C [8] was 40.4%. It also gave a viability, T/C (second compound 3.16 µM, first compound 0.000316 µM) of 81.5%, a viability, T/C (second compound 3.16 µM, first compound 0.001 µM) of 65.9% and a viability, T/C (second compound 3.16 µM, first compound 0.00316 µM) of 72.3%. For the same compound, the viability, T/C (second compound 3.16 µM, first compound 0.01 µM) was 60.6%, the viability, T/C [9] was 57.5% and the viability, T/C [10] was 43.4%. It also gave a viability, T/C (second compound 10 µM, first compound 0.000316 µM) of 99.5%, a viability, T/C (second compound 10 µM, first compound 0.001 µM) of 92.9% and a viability, T/C (second compound 10 µM, first compound 0.00316 µM) of 71.5%. It also gave a viability, T/C (second compound 10 µM, first compound 0.01 µM) of 66.2%, a viability, T/C [11] of 48.3% and a viability, T/C [12] of 41.9%.

`O=C(c1cc(Cc2n[nH]c(=O)c3ccccc23)ccc1F)N1CCN(C(=O)C2CC2)CC1` + Cc1c(S(C)(=O)=O)c(-c2cc(F)cc(N3CCN(c4ccc(NS(=O)(=O)c5ccc(NC(CCN6CCC(C(=O)OCCCP(=O)(O)O)CC6)CSc6ccccc6)c(S(=O)(=O)C(F)(F)F)c5)cc4)CC3)c2)c(-c2ccc(Cl)cc2)n1C(C)C gave an IC50 (second compound 0.0316 µM) of 6940 nM, an IC50 (second compound 0.1 µM) of 8290 nM and an IC50 (second compound 0.316 µM) of 5210 nM. It also gave an IC50 (second compound 1 µM) of 4350 nM, an IC50 (second compound 3.16 µM) of 5160 nM and an IC50 (second compound 10 µM) of 5440 nM. The viability, T/C [1] was 84.8%, the viability, T/C [2] was 72.5% and the viability, T/C (second compound 0.0316 µM, first compound 0.316 µM) was 88%. It also gave a viability, T/C (second compound 0.0316 µM, first compound 1 µM) of 75.9%, a viability, T/C (second compound 0.0316 µM, first compound 3.16 µM) of 68.2% and a viability, T/C (second compound 0.0316 µM, first compound 10 µM) of 41.5%. The viability, T/C [3] was 90%, the viability, T/C [4] was 87.3% and the viability, T/C (second compound 0.1 µM, first compound 0.316 µM) was 79.1%. The viability, T/C (second compound 0.1 µM, first compound 1 µM) was 84%, the viability, T/C (second compound 0.1 µM, first compound 3.16 µM) was 70% and the viability, T/C (second compound 0.1 µM, first compound 10 µM) was 45.9%. It also gave a viability, T/C [5] of 82.8%, a viability, T/C [6] of 80.5% and a viability, T/C (second compound 0.316 µM, first compound 0.316 µM) of 90.2%. For the same compound, the viability, T/C (second compound 0.316 µM, first compound 1 µM) was 75.7%, the viability, T/C (second compound 0.316 µM, first compound 3.16 µM) was 61.8% and the viability, T/C (second compound 0.316 µM, first compound 10 µM) was 35.3%. For the same compound, the viability, T/C [7] was 73.7%, the viability, T/C [8] was 98.6% and the viability, T/C (second compound 1 µM, first compound 0.316 µM) was 69.1%. The viability, T/C (second compound 1 µM, first compound 1 µM) was 63.7%, the viability, T/C (second compound 1 µM, first compound 3.16 µM) was 64.7% and the viability, T/C (second compound 1 µM, first compound 10 µM) was 27.9%. It also gave a viability, T/C [9] of 75.7%, a viability, T/C [10] of 62.6% and a viability, T/C (second compound 3.16 µM, first compound 0.316 µM) of 61.8%. The viability, T/C (second compound 3.16 µM, first compound 1 µM) was 54.1%, the viability, T/C (second compound 3.16 µM, first compound 3.16 µM) was 67.6% and the viability, T/C (second compound 3.16 µM, first compound 10 µM) was 30.8%. It also gave a viability, T/C [11] of 90.6%, a viability, T/C [12] of 83.4% and a viability, T/C (second compound 10 µM, first compound 0.316 µM) of 95.8%. For the same compound, the viability, T/C (second compound 10 µM, first compound 1 µM) was 83.2%, the viability, T/C (second compound 10 µM, first compound 3.16 µM) was 69.1% and the viability, T/C (second compound 10 µM, first compound 10 µM) was 28.9%.
